In publication PMC12429925 (Molecules, 2025):
Read-outs that look alike come from different tables or passages of the source.

Key:
Assay in all cases: cells
Format in all cases: cell-based
[1] = system: CCD18Co (non-malignant human fibroblasts); conditions: CCD-18Co
[2] = system: A2780cis (ovarian carcinoma) cells; conditions: Homo sapiens
[3] = system: MCF7 (breast carcinoma) cells; conditions: Homo sapiens
[4] = system: HT29 (colorectal carcinoma) cells; conditions: Homo sapiens
[5] = system: A549 (lung carcinoma) cells; conditions: Homo sapiens
[6] = system: A2780 (human ovarian carcinoma) cells; conditions: for IC50: Homo sapiens
[7] = system: panel of five different human tumor cell lines; conditions: read-out: IC50 range over tumor cell lines
[8] = MCF7, 72 h, read-out: IC50 MCF7
[9] = HT-29, 72 h, read-out: IC50 HT29
[10] = A549, 72 h, read-out: IC50 A549
[11] = A2780, 72 h, read-out: IC50 A2780

Compound | IC50 ([1]; 72 h, read-out: IC50 CCD18Co) | IC50 ([2]; 72 h, read-out: IC50 A2780cis) | IC50 [3, 8] | IC50 [4, 9] | IC50 [5, 10] | IC50 [6, 11] | other results
CCCCCCCCCCCCCCCCC(=O)NCc1ccc(O)c(OC)c1 [Compound 25, N-[(4-Hydroxy-3-methoxy)benzyl]heptadecanamide] | > 100 µM | > 100 µM | 38.4 µM | 78.5 µM | 60.5 µM | – | –
CCCCCCCCCCCCCCCCCCC(=O)NCc1ccc(O)c(OC)c1 [Compound 29, N-[(4-Hydroxy-3-methoxy)benzyl]nonadecanamide] | > 100 µM | 59.5 µM | 15.9 µM | 68.4 µM | 55.3 µM | – | –
CCCCCCCCCCCC(=O)NCc1ccc(O)c(OC)c1 [Compound 15, N-[(4-Hydroxy-3-methoxy)benzyl]dodecanamide] | – | – | – | – | – | < 10 µM | –
COc1cc(CNC(=O)CCCCC=CC(C)C)ccc1O [A, 8-methyl-N-vanillyl-6-nonenamide, reference compound] | > 100 µM | 84.3 µM | 42.1 µM | 51 µM | 70.3 µM | 15.9 µM | Selectivity index SI (IC50 CCD18Co/IC50 A2780) [6]: >6.3; IC50 ([6]; A2780, read-out: IC50 A2780, converted into μg/mL): ~4.86 µg/mL; IC50 ([1]; read-out: IC50 CCD18Co, converted into μg/mL): > 30.5 µg/mL; IC50 ([2]; read-out: IC50 A2780cis, converted into μg/mL): 25.8 µg/mL; IC50 ([3]; MCF7, read-out: IC50 MCF7, converted into μg/mL): 12.9 µg/mL; IC50 ([4]; HT-29, read-out: IC50 HT29, converted into μg/mL): 15.6 µg/mL; IC50 ([5]; A549, read-out: IC50 A549, converted into μg/mL): 21.5 µg/mL; IC50 [7]: 15 to 84 µM
CCCCCCCCCCCCC(=O)NCc1ccc(O)c(OC)c1 [Compound 17, N-[(4-Hydroxy-3-methoxy)benzyl]tridecanamide] | – | – | – | – | – | < 10 µM | –
CCCCCCCCCCCCCCC(=O)NCc1ccc(O)c(OC)c1 [Compound 21, N-[(4-Hydroxy-3-methoxy)benzyl]pentadecanamide] | – | – | – | – | – | < 10 µM | –
CCCCCCCCCCCCCC(=O)NCc1ccc(O)c(OC)c1 [Compound 19, N-[(4-Hydroxy-3-methoxy)benzyl]tetradecanamide] | – | – | – | – | – | < 10 µM | –
CCCCCCCCCCCCCCCCCC(=O)NCc1ccc(O)c(OC)c1 [Compound 27, N-[(4-Hydroxy-3-methoxy)benzyl]octadecanamide] | > 100 µM | 76.4 µM | 32.6 µM | 42.4 µM | 50.3 µM | – | Selectivity index SI (IC50 CCD18Co/IC50 A2780) [6]: >29.0
